Consider 18 compounds from patent US12595255B2, “Heteroaryl-substituted imidazole derivatives” (Hoffmann-La Roche Inc., priority 2021, dated 2026).

One experiment concerns Acinetobacter baumannii ATCC17961. Nature of the experiment: Antimicrobial susceptibility testing: 90% growth inhibitory concentration (IC90) determination. In kind it is cell-based. As to conditions: ATCC17961, 90% growth inhibitory concentration, Iso-Sensitest broth, OD 600 nm over 16 h, 35±2° C., read-out: ATCC 17961 IC90. As for the experimental part:
Assay Procedures Antimicrobial Susceptibility Testing: 90% Growth Inhibitory Concentration (IC90) Determination
The in vitro antimicrobial activity of the compounds was determined according to the following procedure:
The assay used a 10-points Iso-Sensitest broth medium to measure quantitatively the in vitro activity of the compounds against Acinetobacter baumannii ATCC17961.
Stock compounds in DMSO were serially twofold diluted (e.g. range from 50 to 0.097 μM final concentration) in 384 wells microtiter plates and inoculated with 49 μl the bacterial suspension in Iso-Sensitest medium to have a final cell concentration of ˜5×10^5 CFU/ml in a final volume/well of 50 μl/well. Microtiter plates were incubated at 35±2° C.
Bacterial cell growth was determined with the measurement of optical density at λ=600 nm each 20 minutes over a time course of 16 h. Growth inhibition was calculated during the logarithmic growth of the bacterial cells with determination of the concentration inhibiting 50% (IC50) and 90% (IC90) of the growth.
Table 1 provides the 90% growth inhibitory concentrations (IC90) in micromoles per liter of the compounds of present invention obtained against the strain Acinetobacter baumannii ATCC17961.
Usually IC90 stands for the concentration needed for an effect of 90%. Take `CN(C)c1nc(F)c(-c2cnc(C(=O)Nc3ccc(C(=O)N4CCN(C(=O)C5CC(C[N+](C)(C)C)C5)CC4)c(Cl)c3)n2C)cc1F` (stereo not drawn) [Example D11, [3-[4-[2-chloro-4-[[5-[6-(dimethylamino)-2,5-difluoro-3-pyridyl]-1-methyl-imidazole-2-carbonyl]amino]benzoyl]piperazine-1-carbonyl]cyclobutyl]methyl-trimethyl-ammonium]: the IC90 was determined as 1.5 µM.

`CN(C)c1nc(F)c(-c2cnc(C(=O)Nc3ccc(C(=O)NC4CCN(C(=O)[C@@H]5C[C@@H](O)C[N+]5(C)C)CC4)c(Cl)c3)n2C)cc1F` [Example D12, N-[3-chloro-4-[[1-[(2S,4R)-4-hydroxy-1,1-dimethyl-pyrrolidin-1-ium-2-carbonyl]-4-piperidyl]carbamoyl]phenyl]-5-[6-(dimethylamino)-2,5-difluoro-3-pyridyl]-1-methyl-imidazole-2-carboxamide]: the IC90 came to 2.8 µM.

Regarding `CN(C)c1nc(F)c(-c2cnc(C(=O)Nc3ccc(C(=O)N4CCC(C(=O)NC5CC[N+](C)(C)C5)CC4)c(Cl)c3)n2C)cc1F` (stereo not drawn) [Example D13, 1-[2-chloro-4-[[5-[6-(dimethylamino)-2,5-difluoro-3-pyridyl]-1-methyl-imidazole-2-carbonyl]amino]benzoyl]-N-(1,1-dimethylpyrrolidin-1-ium-3-yl)piperidine-4-carboxamide], the 90% effect concentration (IC90) came out at 0.73 µM.

Turning to `CNc1nc(F)c(-c2cnc(C(=O)Nc3ccc(C(=O)N4CCN(C(=O)C5CCNCC5)CC4)c(Cl)c3)n2C)cc1F` [Example E1, N-[3-chloro-4-[4-(piperidine-4-carbonyl)piperazine-1-carbonyl]phenyl]-5-[2,5-difluoro-6-(methylamino)-3-pyridyl]-1-methyl-imidazole-2-carboxamide], the IC90 came out at 1.2 µM.

With `CN(C)c1nc(F)c(-c2cnc(C(=O)Nc3ccc(C(=O)N4CCN(C(=O)C5CCNCC5)CC4)c(Cl)c3)n2C)cc1F` [Example E2, N-[3-chloro-4-[4-(piperidine-4-carbonyl)piperazine-1-carbonyl]phenyl]-5-[6-(dimethylamino)-2,5-difluoro-3-pyridyl]-1-methyl-imidazole-2-carboxamide], the IC90 came to 0.19 µM.

`CN(C)c1ccc(-c2cnc(C(=O)Nc3ccc(C(=O)N4CCN(C(=O)C5CCNCC5)CC4)c(Cl)c3)n2C)c(F)n1` [Example E3, N-[3-chloro-4-[4-(piperidine-4-carbonyl)piperazine-1-carbonyl]phenyl]-5-[6-(dimethylamino)-2-fluoro-3-pyridyl]-1-methyl-imidazole-2-carboxamide]: the concentration for an effect of 90% (IC90) is 0.47 µM.

For `Cc1nc(N(C)C)ccc1-c1cnc(C(=O)Nc2ccc(C(=O)N3CCN(C(=O)C4CCNCC4)CC3)c(Cl)c2)n1C` [Example E4, N-[3-chloro-4-[4-(piperidine-4-carbonyl)piperazine-1-carbonyl]phenyl]-5-[6-(dimethylamino)-2-methyl-3-pyridyl]-1-methyl-imidazole-2-carboxamide], the 90% effect concentration (IC90) amounted to 1.4 µM.

On to `CN(C)c1ccc(-c2cnc(C(=O)Nc3ccc(C(=O)N4CCN(C(=O)C5CCNCC5)CC4)c(Cl)c3)n2C)c(Cl)n1` [Example E5, 5-[2-chloro-6-(dimethylamino)-3-pyridyl]-N-[3-chloro-4-[4-(piperidine-4-carbonyl)piperazine-1-carbonyl]phenyl]-1-methyl-imidazole-2-carboxamide], for which the IC90 was 0.47 µM.

On to `CN(C)c1nc(F)c(-c2cnc(C(=O)Nc3ccc(C(=O)N4CCN(C(=O)C5(O)CCNCC5)CC4)c(Cl)c3)n2C)cc1F` [Example F1, N-[3-chloro-4-[4-(4-hydroxypiperidine-4-carbonyl)piperazine-1-carbonyl]phenyl]-5-[6-(dimethylamino)-2,5-difluoro-3-pyridyl]-1-methyl-imidazole-2-carboxamide], for which the concentration for an effect of 90% (IC90) was 0.27 µM.

Take `CN(C)c1nc(F)c(-c2cnc(C(=O)Nc3ccc(C(=O)N4CCN(C(=O)C[C@@H]5CCNC5)CC4)c(Cl)c3)n2C)cc1F` [Example F2, N-[3-chloro-4-[4-[2-[(3S)-pyrrolidin-3-yl]acetyl]piperazine-1-carbonyl]phenyl]-5-[6-(dimethylamino)-2,5-difluoro-3-pyridyl]-1-methyl-imidazole-2-carboxamide]: the IC90 was found to be 0.23 µM.

For `CN(C)c1nc(F)c(-c2cnc(C(=O)Nc3ccc(C(=O)N4CCN(C(=O)CC5(O)CCNCC5)CC4)c(Cl)c3)n2C)cc1F` [Example F3, N-[3-chloro-4-[4-[2-(4-hydroxy-4-piperidyl)acetyl]piperazine-1-carbonyl]phenyl]-5-[6-(dimethylamino)-2,5-difluoro-3-pyridyl]-1-methyl-imidazole-2-carboxamide], the IC90 was found to be 0.43 µM.

Regarding `CN(C)c1nc(F)c(-c2cnc(C(=O)Nc3ccc(C(=O)N4CCN(C(=O)C5CCNC5)CC4)c(Cl)c3)n2C)cc1F` (stereo not drawn) [Example F4, N-[3-chloro-4-[4-(pyrrolidine-3-carbonyl)piperazine-1-carbonyl]phenyl]-5-[6-(dimethylamino)-2,5-difluoro-3-pyridyl]-1-methyl-imidazole-2-carboxamide], the IC90 was found to be 0.74 µM.

With `CN(C)c1nc(F)c(-c2cnc(C(=O)Nc3ccc(C(=O)N4CCN(C(=O)CC5CCNCC5)CC4)c(Cl)c3)n2C)cc1F` [Example F6, N-[3-chloro-4-[4-[2-(4-piperidyl)acetyl]piperazine-1-carbonyl]phenyl]-5-[6-(dimethylamino)-2,5-difluoro-3-pyridyl]-1-methyl-imidazole-2-carboxamide], the IC90 was found to be 0.66 µM.

In the case of `CN(C)c1nc(F)c(-c2cnc(C(=O)Nc3ccc(C(=O)N4CCN(C(=O)C5CC(CN)C5)CC4)c(Cl)c3)n2C)cc1F` (stereo not drawn) [Example F7, N-[4-[4-[3-(aminomethyl)cyclobutanecarbonyl]piperazine-1-carbonyl]-3-chloro-phenyl]-5-[6-(dimethylamino)-2,5-difluoro-3-pyridyl]-1-methyl-imidazole-2-carboxamide], the IC90 was 0.39 µM.

For the compound `CN(C)c1nc(F)c(-c2cnc(C(=O)Nc3ccc(C(=O)NC4CCN(C(=O)[C@@H]5C[C@@H](O)CN5)CC4)c(Cl)c3)n2C)cc1F` [Example F9, N-[3-chloro-4-[[1-[(2S,4R)-4-hydroxypyrrolidine-2-carbonyl]-4-piperidyl]carbamoyl]phenyl]-5-[6-(dimethylamino)-2,5-difluoro-3-pyridyl]-1-methyl-imidazole-2-carboxamide], the IC90 was found to be 1.9 µM.

Regarding `CN(C)c1nc(F)c(-c2cnc(C(=O)Nc3ccc(C(=O)N4CCC(C(=O)NC5CCNC5)CC4)c(Cl)c3)n2C)cc1F` (stereo not drawn) [Example F10, 1-[2-chloro-4-[[5-[6-(dimethylamino)-2,5-difluoro-3-pyridyl]-1-methyl-imidazole-2-carbonyl]amino]benzoyl]-N-pyrrolidin-3-yl-piperidine-4-carboxamide], the IC90 was 0.64 µM.

Staying with this experiment, now noted: ATCC17961, 16 h, read-out: ATCC 17961 IC90 [μM].
For the compound `CN(C)c1nc(F)c(-c2cnc(C(=O)Nc3ccc(C(=O)N4CCC(NC(=O)C[N+](C)(C)C)CC4)c(Cl)c3)n2C)cc1F` [Example D9, [2-[[1-[2-chloro-4-[[5-[6-(dimethylamino)-2,5-difluoro-3-pyridyl]-1-methyl-imidazole-2-carbonyl]amino]benzoyl]-4-piperidyl]amino]-2-oxo-ethyl]-trimethyl-ammonium], the concentration for an effect of 90% (IC90) was 1.6 µM.

With `CN(C)c1nc(F)c(-c2cnc(C(=O)Nc3ccc(C(=O)NC4CCN(C(=O)CCOCC[N+](C)(C)C)CC4)c(Cl)c3)n2C)cc1F` [Example D10, 2-[3-[4-[[2-chloro-4-[[5-[6-(dimethylamino)-2,5-difluoro-3-pyridyl]-1-methyl-imidazole-2-carbonyl]amino]benzoyl]amino]-1-piperidyl]-3-oxo-propoxy]ethyl-trimethyl-ammonium], the concentration for an effect of 90% (IC90) came to 5.6 µM.
